Where two headings read alike, the source gives them in different places.
Assay: Pharmacokinetics in female BALB/c nude mice bearing A375 xenografts, 1 day dosing (PK and PD study): plasma, tumor and brain concentrations, AUC
Format: in vivo
Conditions: for Mean Concentration in Brain ± SEM / Mean Concentration in Plasma ± SEM / Mean Concentration in Tumor ± SEM: BQL: below the lower limit of quantitation; for AUC at 24 h: read-out: Brain AUC at 24 hours, Average
From the text: The concentrations of Dabrafenib, Compound 26 and Compound 141 in the treatment of female BALB/c nude mice bearing A375 xenografts are shown in Table 62-Table 72 and FIG. 52-FIG. 73.

[1] = 1.5 mg/kg p.o. BID × 1 day, post 2nd dose, 48 h
[2] = 2 mg/kg p.o. TID × 1 day, post 3rd dose, 48 h
[3] = 3 mg/kg p.o. BID × 1 day, post 2nd dose, 36 h
[4] = mouse, brain, po, 1.5 mg/kg, 1.5 mg/kg p.o. BID × 1 day, post 2nd dose, read-out: Mean Concentration in Brain ± SEM
[5] = mouse, brain, po, 2 mg/kg, 2 mg/kg p.o. TID × 1 day, post 3rd dose, read-out: Mean Concentration in Brain ± SEM
[6] = mouse, brain, po, 3 mg/kg, 3 mg/kg p.o. BID × 1 day, post 2nd dose, read-out: Mean Concentration in Brain ± SEM
[7] = mouse, brain, po, 6 mg/kg, 6 mg/kg p.o. QD × 1 day, read-out: Mean Concentration in Brain ± SEM
[8] = mouse, brain, po, 10 mg/kg, 10 mg/kg p.o. BID × 1 day, post 2nd dose, read-out: Mean Concentration in Brain ± SEM
[9] = mouse, plasma, po, 1.5 mg/kg, 1.5 mg/kg p.o. BID × 1 day, post 1st dose, read-out: Mean Concentration in Plasma ± SEM
[10] = mouse, plasma, po, 1.5 mg/kg, 1.5 mg/kg p.o. BID × 1 day, post 2nd dose, read-out: Mean Concentration in Plasma ± SEM
[11] = mouse, plasma, po, 2 mg/kg, 2 mg/kg p.o. TID × 1 day, post 1st dose, read-out: Mean Concentration in Plasma ± SEM
[12] = mouse, plasma, po, 2 mg/kg, 2 mg/kg p.o. TID × 1 day, post 2nd dose, read-out: Mean Concentration in Plasma ± SEM
[13] = mouse, plasma, po, 2 mg/kg, 2 mg/kg p.o. TID × 1 day, post 3rd dose, read-out: Mean Concentration in Plasma ± SEM
[14] = mouse, plasma, po, 3 mg/kg, 3 mg/kg p.o. BID × 1 day, post 1st dose, read-out: Mean Concentration in Plasma ± SEM

Compound: CCN(C)S(=O)(=O)Nc1ccc(F)c(Oc2ccc3ncn([C@H]4COC5(CCN(C6CC7(C6)CN(c6cc8c(cc6F)c(N6CCC(=O)NC6=O)nn8C)C7)CC5)C4)c(=O)c3c2)c1C#N [Compound 26, (3R)-3-[6-[2-cyano-3-[[ethyl(methyl)sulfamoyl]amino]-6-fluoro-phenoxy]-4-oxo-quinazolin-3-yl]-8-[2-[3-(2,4-dioxohexahydropyrimidin-1-yl)-5-fluoro-1-methyl-indazol-6-yl]-2-azaspiro[3.3]heptan-6-yl]-1-oxa-8-azaspiro[4.5]decane]
- Mean Concentration in Brain ± SEM (1.5 mg/kg p.o. BID × 1 day, post 2nd dose, 24 h): BQL^a
- Mean Concentration in Brain ± SEM [1]: BQL
- Mean Concentration in Plasma ± SEM [1]: BQL
- Mean Concentration in Brain ± SEM (2 mg/kg p.o. TID × 1 day, post 3rd dose, 24 h): BQL^a
- Mean Concentration in Brain ± SEM [2]: BQL
- Mean Concentration in Plasma ± SEM [2]: BQL
- Mean Concentration in Tumor ± SEM [2]: BQL
- Mean Concentration in Brain ± SEM (3 mg/kg p.o. BID × 1 day, post 2nd dose, 24 h): BQL^a
- Mean Concentration in Brain ± SEM [3]: BQL
- Mean Concentration in Tumor ± SEM [3]: BQL
- Mean Concentration in Brain ± SEM (3 mg/kg p.o. BID × 1 day, post 2nd dose, 48 h): BQL
- Mean Concentration in Brain ± SEM (6 mg/kg p.o. QD × 1 day, 24 h): BQL^a
- Mean Concentration in Brain ± SEM (6 mg/kg p.o. QD × 1 day, 48 h): BQL
- Mean Concentration in Brain ± SEM (10 mg/kg p.o. BID × 1 day, post 2nd dose, 24 h): BQL^a
- Mean Concentration in Brain ± SEM (10 mg/kg p.o. BID × 1 day, post 2nd dose, 48 h): BQL
- concentration at 1 h [4]: 25 ± 3.74 ng/g
- concentration at 4 h [4]: 21.8 ± 3.64 ng/g
- concentration at 10 h [4]: 9.78 ± 0.841 ng/g
- concentration at 1 h [5]: 66.5 ± 11.7 ng/g
- concentration at 4 h [5]: 26.9 ± 2.99 ng/g
- concentration at 10 h [5]: 23 ± 7.44 ng/g
- concentration at 0.25 h [6]: 29.7 ng/g
- concentration at 0.5 h [6]: 41 ± 4.05 ng/g
- concentration at 1 h [6]: 89.1 ± 25 ng/g
- concentration at 2 h [6]: 99.5 ± 11.9 ng/g
- concentration at 4 h [6]: 35.8 ± 6.52 ng/g
- concentration at 10 h [6]: 14.5 ± 0.737 ng/g
- concentration at 1 h [7]: 167 ± 27.6 ng/g
- concentration at 4 h [7]: 79.2 ± 21.8 ng/g
- concentration at 10 h [7]: 30.8 ± 8.11 ng/g
- concentration at 1 h [8]: 313 ± 41.7 ng/g
- concentration at 4 h [8]: 185 ± 18.2 ng/g
- concentration at 10 h [8]: 80.4 ± 8.59 ng/g
- AUC at 24 h (mouse, brain, po, 1.5 mg/kg p.o. BID × 1 day): 233 ng·h/mL
- AUC at 24 h (mouse, brain, po, 2 mg/kg p.o. TID × 1 day): 451 ng·h/mL
- AUC at 24 h (mouse, brain, po, 3 mg/kg p.o. BID × 1 day): 522 ng·h/mL
- AUC at 24 h (mouse, brain, po, 6 mg/kg p.o. QD × 1 day): 915 ng·h/mL
- AUC at 24 h (mouse, brain, po, 10 mg/kg p.o. BID × 1 day): 2100 ng·h/mL
- concentration at 0.25 h [9]: 1180 ± 103 ng/mL
- concentration at 0.5 h [9]: 2620 ± 182 ng/mL
- concentration at 1 h [9]: 3790 ± 553 ng/mL
- concentration at 2 h [9]: 3090 ± 346 ng/mL
- concentration at 4 h [9]: 1110 ± 339 ng/mL
- concentration at 8 h [9]: 318 ± 78.2 ng/mL
- concentration at 12 h (mouse, plasma, po, 1.5 mg/kg, 1.5 mg/kg p.o. BID × 1 day, post 1st dose, 12 h, read-out: Mean Concentration in Plasma ± SEM): 121 ± 6.74 ng/mL
- concentration at 0.25 h [10]: 629 ± 24.4 ng/mL
- concentration at 0.5 h [10]: 1580 ± 108 ng/mL
- concentration at 1 h [10]: 1820 ± 86.6 ng/mL
- concentration at 2 h [10]: 2930 ± 312 ng/mL
- concentration at 4 h [10]: 1740 ± 355 ng/mL
- concentration at 10 h [10]: 541 ± 95.8 ng/mL
- concentration at 24 h (mouse, plasma, po, 1.5 mg/kg, 1.5 mg/kg p.o. BID × 1 day, post 2nd dose, 24 h, read-out: Mean Concentration in Plasma ± SEM): 4.74 ± 1.31 ng/mL
- concentration at 36 h (mouse, plasma, po, 1.5 mg/kg, 1.5 mg/kg p.o. BID × 1 day, post 2nd dose, 36 h, read-out: Mean Concentration in Plasma ± SEM): 0.889 ng/mL
- concentration at 0.25 h [11]: 1600 ± 272 ng/mL
- concentration at 0.5 h [11]: 2880 ± 289 ng/mL
- concentration at 1 h [11]: 3720 ± 77.7 ng/mL
- concentration at 2 h [11]: 2930 ± 635 ng/mL
- concentration at 4 h [11]: 1420 ± 56.7 ng/mL
- concentration at 8 h [11]: 283 ± 80.3 ng/mL
- concentration at 0.25 h [12]: 1390 ± 84.1 ng/mL
- concentration at 2 h [12]: 2720 ± 466 ng/mL
- concentration at 8 h [12]: 580 ± 166 ng/mL
- concentration at 0.25 h [13]: 1090 ± 75.2 ng/mL
- concentration at 0.5 h [13]: 2630 ± 81.7 ng/mL
- concentration at 1 h [13]: 3780 ± 584 ng/mL
- concentration at 2 h [13]: 3680 ± 376 ng/mL
- concentration at 4 h [13]: 1770 ± 127 ng/mL
- concentration at 10 h [13]: 1250 ± 411 ng/mL
- concentration at 24 h (mouse, plasma, po, 2 mg/kg, 2 mg/kg p.o. TID × 1 day, post 3rd dose, 24 h, read-out: Mean Concentration in Plasma ± SEM): 9.4 ± 3.31 ng/mL
- concentration at 36 h (mouse, plasma, po, 2 mg/kg, 2 mg/kg p.o. TID × 1 day, post 3rd dose, 36 h, read-out: Mean Concentration in Plasma ± SEM): 1.45 ng/mL
- concentration at 0.25 h [14]: 3010 ± 401 ng/mL
- concentration at 0.5 h [14]: 8140 ± 2030 ng/mL
- concentration at 1 h [14]: 7840 ± 1330 ng/mL
- concentration at 2 h [14]: 6910 ± 1450 ng/mL

— patent US20260297060A1, “COMPOUNDS FOR THE DEGRADATION OF MUTANT BRAF” (C4 THERAPEUTICS, INC., priority 2023, published 2026)
